Results reported in patent US20190135834A1, “5-SUBSTITUTED AZABENZIMIDAZOLE DERIVATIVE HAVING ???? ACTIVATION ACTION” (Shionogi & Co., Ltd., priority 2016, published 2019).

Biological target: T1, Human AMPK α2ß2γ1 (Homo sapiens, UniProt O43741+P54646)
T1 construct: The full length cDNAs of human AMPK ß2 (NM_005399.3) and human AMPK α2 (NM_006252.3); The full length cDNAs of human AMPK ß2 (NM_005399.3); 6xHis (N); made in house; host or cells: Escherichia coli BL21 CodonPlus (DE3)-RIL
Assay: Test Example 2: evaluation of an activator for AMP-activated protein kinase (AMPK), LabChip mobility shift assay with CaMKK2-phosphorylated enzyme
Type: biochemical
Conditions: for EC150 (compound concentration showing 150% relative to the control (100%)): FL-Peptide 7 substrate, 25° C., 2 hours; for Emax / Emax (maximum rate of increase in activity within the measurement range): relative to control (100%); for Emax: read-out: Emax (maximum rate of increase in activity within the measurement range)
Procedure: The full length cDNAs of human AMPK ß2 (NM_005399.3) and human AMPK α2 (NM_006252.3) were inserted into the MCS1 and MCS2 of the pETDuet-1 vector to prepare a human AMPK ß2 and human AMPK α2 (6× His tag at the 5′ terminus) expressing plasmid. The plasmid was cotransfected with an expression plasmid, in which the full length cDNA of human AMPK γ1 (NM_002733.3) had been inserted into pET28b(+), into BL21 CodonPlus (DE3)-RIL to obtain an expression strain. The expression strain was cultured in TB medium, followed by induction with 0.5 mM IPTG, and cultured at 25° C. for 3 hours and then harvested. After ultrasonication, supernatant was collected and applied to Histrap FF column (GE) and RESOURCE Q column (GE) to prepare 12.5 mg of purified sample containing three types of subunit from 1.8 L of broth.
Preparation method of human CaMKK2 used to impart activity to AMPK An expression vector, in which the full length cDNA of human CAMKK ß (NM_172226.1) had been inserted into pGEX-6P-3, was transfected into BL21 Star (DE3). The expression strain was cultured in TB medium, followed by induction with 0.5 mM IPTG, and cultured at 25° C. for 3 hours and then harvested. After ultrasonication, supernatant was collected and applied to GSTrap FF column (GE) to prepare 14 mg of GST-fused CAMKK ß from 720 ml of broth.
Thus, phosphorylation treatment was carried out as pretreatment.
Human AMPK α2ß2γ1 in an amount to give a conversion rate of approximately 10% by reaction for 2 hours, and CaMKK2 in an amount capable of sufficiently imparting activity to AMPK for one hour were mixed in a buffer solution consisting of a 50 mM HEPES-NaOH buffer solution (pH 7.0), 100 mM NaCl, 5 mM magnesium chloride, 0.1% bovine serum albumin, 0.2 mM sodium orthovanadate(V), 1 mM ethylene glycol-bis(2-aminoethyl ether)-N,N,N′,N′-tetraacetic acid (EGTA), 5 mM disodium ß-glycerophosphate, 1 mM dithiothreitol and 0.2 mM ATP, and the resulting liquid was left to stand at 25° C. for 1 to 1.5 hours to sufficiently phosphorylate AMPK.
After that, to the enzyme liquid, which had been subjected to phosphorylation treatment, a compound dissolved in DMSO was added so as to have a 1% DMSO concentration. The resulting liquid was left to stand for 10 minutes.
To the liquid, a substrate solution consisting of a 50 mM HEPES-NaOH buffer solution (pH 7.0), 100 mM NaCl, 10 mM magnesium chloride, 0.1% bovine serum albumin, 0.2 mM sodium orthovanadate(V), 1 mM ethylene glycol-bis(2-aminoethyl ether)-N,N,N′,N′-tetraacetic acid (EGTA), 5 mM disodium ß-glycerophosphate, 2 mM dithiothreitol, 0.4 mM ATP and 3 μM FL-Peptide 7 (manufactured by Caliper Life Sciences, Inc.) was added in equal amount (10 μl in total). The resulting liquid was allowed to react at 25° C. for 2 hours, and 10 μl of 20 mM EDTA was added thereto to stop the reaction.
To detect phosphorylated fluorescent substrates, the reaction mixture was applied to a measuring device, LabChip EZ Reader II manufactured by Caliper Life Science, Inc., for detecting fluorescence by using differences in mobility due to differences in charge. The setting conditions for the device were pressure, −1.5 PSI; upstream voltage, −2250 V; downstream voltage, −400 V; post sample buffer sip time, 40 seconds; final delay, 120 seconds; and peak order, Product First.
A conversion rate was calculated from the peak heights of the obtained substrate and product. The conversion rate when not containing a compound was used as a control, and a concentration dependent curve was made by plotting the rate of increase in activity to the control at each concentration of a compound.

T1 sequence (P54646 whole entry): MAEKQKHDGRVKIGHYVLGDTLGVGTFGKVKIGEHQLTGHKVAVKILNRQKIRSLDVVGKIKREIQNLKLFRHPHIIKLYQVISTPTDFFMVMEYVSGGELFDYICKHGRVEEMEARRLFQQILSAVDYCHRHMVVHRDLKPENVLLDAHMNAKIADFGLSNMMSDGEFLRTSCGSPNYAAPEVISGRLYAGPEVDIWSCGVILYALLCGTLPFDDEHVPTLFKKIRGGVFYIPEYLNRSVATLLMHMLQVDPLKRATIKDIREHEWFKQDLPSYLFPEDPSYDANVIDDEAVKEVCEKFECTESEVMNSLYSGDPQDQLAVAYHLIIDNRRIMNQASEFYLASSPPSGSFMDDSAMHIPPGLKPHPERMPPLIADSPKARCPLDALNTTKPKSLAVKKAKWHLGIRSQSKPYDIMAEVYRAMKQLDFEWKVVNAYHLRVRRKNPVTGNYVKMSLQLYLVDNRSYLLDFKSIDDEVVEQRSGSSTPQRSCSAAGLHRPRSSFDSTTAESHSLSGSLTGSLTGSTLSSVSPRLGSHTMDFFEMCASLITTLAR
T1 sequence (O43741 whole entry): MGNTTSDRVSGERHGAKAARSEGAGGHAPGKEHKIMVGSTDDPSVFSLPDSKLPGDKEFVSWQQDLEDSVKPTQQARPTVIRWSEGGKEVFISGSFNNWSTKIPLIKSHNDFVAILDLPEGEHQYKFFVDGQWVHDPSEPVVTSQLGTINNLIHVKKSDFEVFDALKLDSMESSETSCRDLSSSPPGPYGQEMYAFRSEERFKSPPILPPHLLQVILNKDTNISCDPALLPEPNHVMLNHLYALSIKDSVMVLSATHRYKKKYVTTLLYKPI
T1 sequence (P54619 whole entry partner): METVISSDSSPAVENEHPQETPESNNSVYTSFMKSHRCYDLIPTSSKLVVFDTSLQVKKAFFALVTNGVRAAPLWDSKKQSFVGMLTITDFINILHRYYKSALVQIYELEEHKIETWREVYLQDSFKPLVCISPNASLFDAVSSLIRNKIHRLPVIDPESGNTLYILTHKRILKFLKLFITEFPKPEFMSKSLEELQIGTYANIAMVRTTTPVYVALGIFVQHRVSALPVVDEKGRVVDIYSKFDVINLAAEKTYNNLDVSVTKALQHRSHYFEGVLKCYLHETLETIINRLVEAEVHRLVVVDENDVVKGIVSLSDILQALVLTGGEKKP

Structure (SMILES) | EC150 (compound concentration showing 150% relative to the control (100%)) | Emax | Emax (maximum rate of increase in activity within the measurement range)
Cn1cc(-c2cc(F)c3c(c2)CCC3Nc2nc3nc(O[C@@H]4CO[C@H]5[C@@H]4OC[C@H]5O)[nH]c3cc2Cl)ccc1=O (stereo partly shown) [Compound I-1-106] | 1.4 nM | 462% | –
O[C@@H]1CO[C@H]2[C@@H]1OC[C@H]2Oc1nc2nc(NC3CCc4cc(-c5cnccn5)cc(F)c43)c(Cl)cc2[nH]1 (stereo partly shown) [Compound I-1-111] | 4.5 nM | 424% | –
O[C@@H]1CO[C@H]2[C@@H]1OC[C@H]2Oc1nc2nc(N[C@H]3CCc4cc(O[C@H]5CC[C@@H](O)CC5)cc(F)c43)c(Cl)cc2[nH]1 [Compound I-2-01] | 1.8 nM | 646% | –
COCC1CC1c1cc(F)c2c(c1)CC[C@@H]2Nc1nc2nc(O[C@@H]3CO[C@H]4[C@@H]3OC[C@H]4O)[nH]c2cc1Cl (stereo partly shown) [Compound I-2-02] | 2.4 nM | 557% | –
O[C@@H]1CO[C@H]2[C@@H]1OC[C@H]2Oc1nc2nc(NC3CCc4cc(OCCOCC(F)(F)F)cc(F)c43)c(Cl)cc2[nH]1 (stereo partly shown) [Compound I-2-05] | 6 nM | 680% | –
O[C@@H]1CO[C@H]2[C@@H]1OC[C@H]2Oc1nc2nc(NC3CCc4cc(OCCF)cc(F)c43)c(Cl)cc2[nH]1 (stereo partly shown) [Compound I-2-06] | 3.6 nM | – | 707%
CCOC/C=C/c1cc(F)c2c(c1)CC[C@@H]2Nc1nc2nc(O[C@@H]3CO[C@H]4[C@@H]3OC[C@H]4O)[nH]c2cc1Cl [Compound I-2-07] | 2 nM | 727% | –
CS(C)(=O)=Nc1cc(F)c2c(c1)CC[C@@H]2Nc1nc2nc(O[C@@H]3CO[C@H]4[C@@H]3OC[C@H]4O)[nH]c2cc1Cl [Compound I-2-08] | 3.5 nM | 688% | –
CC(C)(O)COc1cc(F)c2c(c1)CCC2Nc1nc2nc(O[C@@H]3CO[C@H]4[C@@H]3OC[C@H]4O)[nH]c2cc1Cl (stereo partly shown) [Compound I-2-09] | 3.9 nM | 633% | –
N#Cc1cc(F)c2c(c1)CC[C@@H]2Nc1nc2nc(O[C@@H]3CO[C@H]4[C@@H]3OC[C@H]4O)[nH]c2cc1Cl [Compound I-2-10] | 3.4 nM | 642% | –
O[C@@H]1CO[C@H]2[C@@H]1OC[C@H]2Oc1nc2cc(Cl)c(NC3CCc4cc(OCCOC(F)F)cc(F)c43)nc2[nH]1 (stereo partly shown) [Compound I-2-14] | 5.6 nM | 594% | –
COCn1cc(-c2cc(F)c3c(c2)CC[C@@H]3Nc2nc3[nH]c(O[C@@H]4CO[C@H]5[C@@H]4OC[C@H]5O)nc3cc2Cl)cn1 [Compound I-2-17] | 1.4 nM | 720% | –
O[C@@H]1CO[C@H]2[C@@H]1OC[C@H]2Oc1nc2nc(NC3CCc4cc(-c5ccoc5)cc(F)c43)c(Cl)cc2[nH]1 (stereo partly shown) [Compound I-2-21] | 4.9 nM | 650% | –
Cn1nccc1-c1cc(F)c2c(c1)CCC2Nc1nc2nc(O[C@@H]3CO[C@H]4[C@@H]3OC[C@H]4O)[nH]c2cc1Cl (stereo partly shown) [Compound I-2-23] | 12 nM | 709% | –
COc1ccc(-c2cc(F)c3c(c2)CCC3Nc2nc3nc(O[C@@H]4CO[C@H]5[C@@H]4OC[C@H]5O)[nH]c3cc2Cl)cn1 (stereo partly shown) [Compound I-2-26] | 7.1 nM | – | 669%
O=S(=O)(NCCOc1cc(F)c2c(c1)CCC2Nc1nc2nc(O[C@@H]3CO[C@H]4[C@@H]3OC[C@H]4O)[nH]c2cc1Cl)C(F)F (stereo partly shown) [Compound I-2-32] | 9 nM | 714% | –
COCC(=O)NCCOc1cc(F)c2c(c1)CCC2Nc1nc2nc(O[C@@H]3CO[C@H]4[C@@H]3OC[C@H]4O)[nH]c2cc1Cl (stereo partly shown) [Compound I-2-33] | 3 nM | 704% | –
O=C(NCCOc1cc(F)c2c(c1)CCC2Nc1nc2nc(O[C@@H]3CO[C@H]4[C@@H]3OC[C@H]4O)[nH]c2cc1Cl)C1CCC1 (stereo partly shown) [Compound I-2-34] | 6.6 nM | 719% | –
CS(=O)(=O)NCCOc1cc(F)c2c(c1)CCC2Nc1nc2nc(O[C@@H]3CO[C@H]4[C@@H]3OC[C@@H]4F)[nH]c2cc1Cl (stereo partly shown) [Compound I-2-35] | 10 nM | 679% | –
CC(C)OCCOc1cc(F)c2c(c1)CCC2Nc1nc2nc(O[C@@H]3CO[C@H]4[C@@H]3OC[C@H]4O)[nH]c2cc1Cl (stereo partly shown) [Compound I-2-36] | 3.9 nM | 698% | –
CC(C)(O)/C=C/c1cc(F)c2c(c1)CCC2Nc1nc2nc(O[C@@H]3CO[C@H]4[C@@H]3OC[C@H]4O)[nH]c2cc1Cl (stereo partly shown) [Compound I-2-37] | 3.2 nM | 645% | –
OC1CC=C(c2cc(F)c3c(c2)CCC3Nc2nc3nc(O[C@@H]4CO[C@H]5[C@@H]4OC[C@H]5O)[nH]c3cc2Cl)CC1 (stereo partly shown) [Compound I-2-38] | 3.1 nM | 725% | –
O[C@@H]1CO[C@H]2[C@@H]1OC[C@H]2Oc1nc2nc(N[C@H]3CCc4cc(/C=C/COC5CCCCO5)cc(F)c43)c(Cl)cc2[nH]1 (stereo partly shown) [Compound I-2-39] | 11 nM | 583% | –
O[C@@H]1CO[C@H]2[C@@H]1OC[C@H]2Oc1nc2nc(NC3CCc4cc(OCCOC5CC5)cc(F)c43)c(Cl)cc2[nH]1 (stereo partly shown) [Compound I-2-40] | 4.1 nM | 604% | –
O[C@@H]1CO[C@H]2[C@@H]1OC[C@H]2Oc1nc2nc(NC3CCc4cc(OCCOC5CCC5)cc(F)c43)c(Cl)cc2[nH]1 (stereo partly shown) [Compound I-2-41] | 10 nM | 604% | –
O[C@@H]1CO[C@H]2[C@@H]1OC[C@H]2Oc1nc2nc(NC3CCc4cc(OCCOC5CCCC5)cc(F)c43)c(Cl)cc2[nH]1 (stereo partly shown) [Compound I-2-42] | 9.1 nM | 600% | –
CC(C)(C)OCCOc1cc(F)c2c(c1)CCC2Nc1nc2nc(O[C@@H]3CO[C@H]4[C@@H]3OC[C@H]4O)[nH]c2cc1Cl (stereo partly shown) [Compound I-2-43] | 31 nM | 612% | –
COCOCCOc1cc(F)c2c(c1)CCC2Nc1nc2nc(O[C@@H]3CO[C@H]4[C@@H]3OC[C@H]4O)[nH]c2cc1Cl (stereo partly shown) [Compound I-2-44] | 3.8 nM | 595% | –
Cc1cc(-c2cc(F)c3c(c2)CC[C@@H]3Nc2nc3nc(O[C@@H]4CO[C@H]5[C@@H]4OC[C@H]5O)[nH]c3cc2Cl)cnn1 [Compound I-2-45] | 2.1 nM | 711% | –
